Assays:
[1] = target: T1, CFTR (Homo sapiens, UniProt P13569); assay: Isc under voltage clamp in normal explanted human trachea; conditions: ivacaftor 10 μM after amiloride 100 μM and forskolin 100 nM, voltage clamp (FIGS. 3A, 3B)
T1 construct: from tissue; host or cells: normal human trachea/bronchus from donor explant organs
Experimental: Serial addition of amiloride (100 μM), forskolin (100 nM), and ivacaftor (VX-770; 10 μM) or vehicle control is shown, followed by addition of ATP (10 μM), and CFTR Inh-172 (10 μM×2) as control additions.
The change in Isc following addition of ivacaftor (VX-770) or vehicle control is shown. *P<0.05, n=19, 24 samples/condition.
Ivacaftor also potentiated CFTR-dependent current in normal explanted human trachea examined under voltage clamp conditions (FIGS. 3A and B).
Samples of human trachea tissue were obtained from normal donor explant organs not selected for lung transplantation. Lung, mainstem bronchi, and trachea were resected en-bloc, transferred on wet ice, and large airways excised. Airway tissues were then immersed in ice cold DMEM following resection for transfer, then allowed to equilibrate to room temperature prior to mOCT imaging.
Short-circuit current (Isc) was measured under voltage clamp conditions using MC8 voltage clamps and P2300 Ussing chambers (Physiologic Instruments, San Diego, Calif.) as previously described (2). Monolayers were initially bathed on both sides with identical Ringer's solutions containing (in mM) 115 NaCl, 25 NaHCO3, 2.4 KH2PO4, 1.24 K2HPO4, 1.2 CaCl2, 1.2 MgC2, 10 D-glucose (pH 7.4). […] A one-second three-mV pulse was imposed every 10 seconds to monitor resistance calculated using Ohm's law. […]

[2] = target: T1, CFTR; assay: Short-circuit current (Isc) in primary non-CF human bronchial epithelial (HBE) cells; type: cell-based; conditions: ivacaftor 10 μM after pre-stimulation with 100 nM forskolin, compared to forskolin alone (FIG. 1B)
Experimental: In primary non-CF human bronchial epithelial (HBE) cells, ivacaftor also augmented CFTR-dependent anion transport activity following pre-stimulation with 100 nM forskolin, a dose chosen to induce cAMP levels matching CSE-exposed cells, increasing CFTR-dependent short-circuit current (Isc) compared to that stimulated by forskolin alone (FIG. 1B).
Primary human bronchial epithelial (HBE) cells were derived from lung explants after written informed consent was obtained from CF and non-CF subjects with confirmed CFTR genetics by methods described previously. Briefly, tissues were debrided immediately after surgical resection, washed twice in Minimum Essential Media (MEM) with 0.5 mg/ml DTT (Sigma-Aldrich, St. Louis, Mo.) and 25 U/ml DNAse I (Roche, Basel, Switzerland), and then placed in dissociation media containing MEM, 2.5 U/ml DNAse I, 100 μg/ml ceftazidime, 80 μg/ml tobramycin, 1.25 μg/ml amphotericin B, and 4.4 U/ml pronase (Sigma-Aldrich) for 24-36 h at 4° C. […]
Short-circuit current (Isc) was measured under voltage clamp conditions using MC8 voltage clamps and P2300 Ussing chambers (Physiologic Instruments, San Diego, Calif.) as previously described (2). […] A one-second three-mV pulse was imposed every 10 seconds to monitor resistance calculated using Ohm's law. […]

[3] = system: HBE cells; assay: Mucus transport studies (fluorescent beads) in HBE cells; type: cell-based, human; conditions: ivacaftor 10 μM basolateral, co-stimulated with VIP 30 nM, vs control (FIG. 2C)
Experimental: HBE cells were washed with sterile PBS twice 1-2 days prior to addition of PEG beads. Fifty (50) μl of Diamine polyethylene glycol (PEG) coated fluorescent beads (1 μm, Molecular Probes, Eugene, Oreg., 1:500 dilution in PBS) were added to the apical surface by using a microsprayer aerosolizer (Penn-Century Inc Model IA-1B, Wyndmoor, Pa.). Following 24 h incubation, baseline images were obtained and then test compounds added to the basolateral compartment. Mucociliary transport (MCT) images were captured by time-lapse fluorescence imaging at four regions of interest per well located 1 mm from the periphery of the well and at each quadrant using an inverted epifluorescence microscope (Nikon Diaphot, Melvin, N.Y.; 488 nm excitation/519 nm emission). Linear transport rates were computed using Metamoph 7.0 by analyzing 10-15 particles per region (7).

T1 sequence (P13569 whole entry): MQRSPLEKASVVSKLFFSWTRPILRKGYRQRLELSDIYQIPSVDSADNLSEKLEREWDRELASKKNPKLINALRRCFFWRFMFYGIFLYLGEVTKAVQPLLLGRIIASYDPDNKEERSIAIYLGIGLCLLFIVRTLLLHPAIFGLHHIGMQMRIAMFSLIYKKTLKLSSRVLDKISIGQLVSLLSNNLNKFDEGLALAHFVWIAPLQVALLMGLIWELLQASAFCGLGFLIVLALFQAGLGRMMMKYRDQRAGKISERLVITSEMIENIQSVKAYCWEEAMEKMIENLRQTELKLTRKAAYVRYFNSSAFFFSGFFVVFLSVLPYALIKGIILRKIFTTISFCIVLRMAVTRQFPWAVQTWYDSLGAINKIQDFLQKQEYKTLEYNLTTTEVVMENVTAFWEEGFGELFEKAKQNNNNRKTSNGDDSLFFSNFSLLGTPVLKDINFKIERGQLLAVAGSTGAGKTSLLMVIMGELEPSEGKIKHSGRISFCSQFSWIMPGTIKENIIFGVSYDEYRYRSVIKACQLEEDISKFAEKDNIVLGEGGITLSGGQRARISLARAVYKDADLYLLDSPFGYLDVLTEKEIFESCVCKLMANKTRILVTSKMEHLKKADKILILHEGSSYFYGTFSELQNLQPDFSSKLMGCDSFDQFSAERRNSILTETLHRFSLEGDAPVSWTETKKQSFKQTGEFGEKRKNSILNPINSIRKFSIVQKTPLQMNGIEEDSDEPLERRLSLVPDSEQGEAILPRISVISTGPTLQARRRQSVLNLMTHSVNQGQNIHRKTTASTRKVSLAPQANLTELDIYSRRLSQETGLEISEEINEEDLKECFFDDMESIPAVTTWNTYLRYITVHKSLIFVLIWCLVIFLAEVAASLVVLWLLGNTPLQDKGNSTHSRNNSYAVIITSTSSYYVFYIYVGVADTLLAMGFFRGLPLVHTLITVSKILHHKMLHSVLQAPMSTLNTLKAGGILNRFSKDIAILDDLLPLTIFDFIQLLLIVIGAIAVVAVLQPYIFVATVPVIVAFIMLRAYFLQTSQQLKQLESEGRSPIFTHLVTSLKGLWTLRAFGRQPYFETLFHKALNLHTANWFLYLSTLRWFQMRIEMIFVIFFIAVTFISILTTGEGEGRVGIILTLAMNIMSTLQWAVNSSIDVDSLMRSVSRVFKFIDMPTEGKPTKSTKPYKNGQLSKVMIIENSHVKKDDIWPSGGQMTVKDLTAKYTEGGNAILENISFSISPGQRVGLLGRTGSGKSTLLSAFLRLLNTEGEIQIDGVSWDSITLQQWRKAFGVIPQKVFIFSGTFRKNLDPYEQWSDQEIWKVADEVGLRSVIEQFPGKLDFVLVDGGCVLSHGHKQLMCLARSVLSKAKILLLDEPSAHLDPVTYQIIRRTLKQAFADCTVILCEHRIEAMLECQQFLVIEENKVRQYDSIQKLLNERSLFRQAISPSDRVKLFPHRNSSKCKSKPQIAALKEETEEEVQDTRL

CFTR-dependent current [1]: potentiated
CFTR-dependent anion transport activity (short-circuit current, Isc) [2]: augmented
SMILES: CC(C)(C)c1cc(C(C)(C)C)c(NC(=O)c2c[nH]c3ccccc3c2=O)cc1O [ivacaftor]
mucus transport (MCT) [3]: markedly increased above baseline

Source: patent US10300052B2, “Methods for increasing CFTR activity” (THE UAB RESEARCH FOUNDATION, priority 2012, dated 2019)
